Data published in patent US6737383B1, “Herbicidal oxadiazolidines” (priority 1999, dated 2004).

Tests used:
tall mallow = assay: Test D tall mallow; assay type: in vivo, Malva sylvestris; settings: Preemergence, 0 to 100 scale
Procedure, shortened: (§1)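 Visual injury ratings, 0 = no injury to 100 = complete control, taken 14 to 21 days after treatment. Test chemicals were in a surfactant-containing non-phytotoxic solvent; preemergence treatments went onto the sandy loam surface of seeded greenhouse pots within one day of sowing.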

guineagrass = assay: Test D guineagrass; assay type: in vivo, Panicum maximum; settings: Preemergence, 0 to 100 scale
Excerpt: (§2) Seeds, tubers, or plant parts of Alexandergrass (Brachiaria plantaginea), bermuda-grass (Cynodon dactylon), common pursiane (Portulaca oleracea), common ragweed (Ambrosia elatior), common groundsel (Senecio vulgaris), dallisgrass (Paspalum dilatatum), goosegrass (Eleusine indica), guineagrass (Panicum maximum), itchgrass (Rottboellia exaltata), Johnson grass (Sorghum halepense), large crabgrass (Digitaria sanguinalis), pitted morningglory (Ipomoea lacunosa), purple nutsedge (Cyperus rotundus), sandbur (Cenchrus echinatus), sourgrass (Trichachne insularis), Spanishneedles (Bidens bipinnata), surinam grass (Brachiaria decumbens) and tall mallow (Malva sylvestris) were planted into greenhouse pots of flats containing greenhouse planting medium. Plant species were grown in separate pots or individual compartments. Preemergence applications were made within one day of planting the seed or plant part.
(§3) Test chemicals were formulated in a non-phytotoxic solvent mixture which included a surfactant and applied preemergence to the surface of the pot containing seeds in a sandy loam soil. Untreated control pots and treated pots were placed in the greenhouse for growth and visually evaluated for injury 14 to 21 days after herbicide application. Plant response ratings, summarized in Table C, are based on a 0 to 100 scale where 0 is no injury and 100 is complete control. A dash (−) response means no test result.

Alexandergrass = assay: Test D Alexandergrass; assay type: in vivo, Brachiaria plantaginea; settings: Preemergence, 0 to 100 scale
Excerpt: as §2, §3

bermuda-grass = assay: Test D bermudagrass; assay type: in vivo, Cynodon dactylon; settings: Preemergence, 0 to 100 scale
Procedure, shortened: as §1

common groundsel = assay: Test D common groundsel; assay type: in vivo, Senecio vulgaris; settings: Preemergence, 0 to 100 scale
Excerpt: as §2, §3

Green foxtail = assay: Test D green foxtail; assay type: in vivo; settings: Preemergence, 0 to 100 scale
Procedure, shortened: as §1

pitted morningglory = assay: Test D pitted morningglory; assay type: in vivo, Ipomoea lacunosa; settings: Preemergence, 0 to 100 scale
Excerpt: as §2
as §3, with “Plant response ratings, summarized in Table C, are based on a 0 to 100 scale where 0 is no injury and 100 is complete control.” left out

dallisgrass = assay: Test D dallisgrass; assay type: in vivo, Paspalum dilatatum; settings: Preemergence, 0 to 100 scale
Excerpt: as §2, §3

Spanishneedles = assay: Test D Spanishneedles; assay type: in vivo, Bidens bipinnata; settings: Preemergence, 0 to 100 scale
Procedure, shortened: as §1

itchgrass = assay: Test D itchgrass; assay type: in vivo, Rottboellia exaltata; settings: Preemergence, 0 to 100 scale
Procedure, shortened: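 Scoring used a 0–100 visual injury scale, with 0 meaning no effect and 100 complete control, assessed 14–21 days after application alongside untreated pots. Preemergence treatments went onto sandy loam surfaces of separately potted seeds within a day of sowing.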

common pursiane = assay: Test D common purslane; assay type: in vivo, Portulaca oleracea
Procedure, shortened: as §1

sandbur = assay: Test D sandbur; assay type: in vivo, Cenchrus echinatus; settings: Preemergence, 0 to 100 scale
Excerpt: as §2, §3

common ragweed = assay: Test D common ragweed; assay type: in vivo, Ambrosia elatior; settings: Preemergence, 0 to 100 scale
Excerpt: as §2, §3

Johnson grass = assay: Test D Johnson grass; assay type: in vivo, Sorghum halepense; settings: Preemergence, 0 to 100 scale
Excerpt: as §2, §3

surinam grass = assay: Test D surinam grass; assay type: in vivo, Brachiaria decumbens; settings: Preemergence, 0 to 100 scale
Excerpt: as §2, §3

goosegrass = assay: Test D goosegrass; assay type: in vivo, Eleusine indica; settings: Preemergence, 0 to 100 scale
Excerpt: as §2, §3

hairy beggarticks = assay: Test C postemergence hairy beggarticks; assay type: in vivo, Bidens pilosa; settings: 0 to 100 scale, 0 no effect, 100 complete control
Procedure, shortened: (§4)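 Postemergence spray; formulation = non-phytotoxic solvent + surfactant; soil 60:40 sandy loam:greenhouse potting mix; greenhouse, ~14–21 d; visual rating vs untreated, 0–100 (100 = complete control).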

velvetleaf = assay: Test C postemergence velvetleaf; assay type: in vivo, Abutilon theophrasti; settings: 0 to 100 scale, 0 no effect, 100 complete control
Procedure, shortened: as §4

cocklebur = assay: Test C postemergence cocklebur; assay type: in vivo, Xanthium strumarium; settings: 0 to 100 scale, 0 no effect, 100 complete control
Procedure, shortened: as §4

[1] = Rate 32 g/ha, 0 no injury, 100 complete control
[2] = Rate 64 g/ha, 0 no injury, 100 complete control
[3] = Rate 125 g/ha, 0 no injury, 100 complete control
[4] = Rate 125 g/ha, Preemergence; 0 to 100 scale, 0 no injury, 100 complete control
[5] = Rate 500 g/ha, Preemergence; 0 to 100 scale
[6] = Rate 500 g/ha; Preemergence; 0 to 100 scale

CCc1ccccc1-n1c(=O)on(C(=O)N(c2ccc(F)cc2)C(C)C)c1=O [Compound 34]
80: Plant response rating, Guineagrass (guineagrass; [2]) | Plant response rating, Dallisgrass (dallisgrass; [2])
30: Plant response rating, Guineagrass (guineagrass; [1]) | Plant response rating, Alexandergrass (Alexandergrass; [3]) | Sandbur plant response rating (sandbur; [3]) | Plant response rating Johnsongrass (Johnson grass; Rate 250 g/ha)
98: Plant response rating, Guineagrass (guineagrass; Rate 250 g/ha) | Plant response rating, Bermudagrass (bermuda-grass; [2]) | Plant response rating, Dallisgrass (dallisgrass; [3]) | Plant response rating, Goosegrass (goosegrass; Rate 250 g/ha)
100: Plant response rating, Bermudagrass (bermuda-grass; [3]) | Plant response rating, Bermudagrass (bermuda-grass; Rate 250 g/ha) | Plant response rating, Dallisgrass (dallisgrass; Rate 250 g/ha)
60: Plant response rating, Alexandergrass (Alexandergrass; Rate 250 g/ha)
40: Plant response rating, Sandbur (sandbur; Rate 250 g/ha)
0: Plant response rating, Tall Mallow (tall mallow; [1]) | Tall Mallow plant response rating (tall mallow; [2]) | Tall Mallow plant response rating (tall mallow; [3]) | Plant response rating, Tall Mallow (tall mallow; Rate 250 g/ha) | Plant response rating, Alexandergrass (Alexandergrass; [1]) | Plant response rating, Com. groundsel (common groundsel; [1]) | Plant response rating, Com. groundsel (common groundsel; [2]) | Plant response rating, Com. groundsel (common groundsel; [3]) | Plant response rating, Com. groundsel (common groundsel; Rate 250 g/ha) | Plant response rating, Green foxtail (Green foxtail; [1]) | Plant response rating, P. morninglory (pitted morningglory; [1]) | Plant response rating, P. morninglory (pitted morningglory; [2]) | Plant response rating, P. morninglory (pitted morningglory; [3]) | Plant response rating, P. morninglory (pitted morningglory; Rate 250 g/ha) | Plant response rating, Dallisgrass (dallisgrass; [1]) | Plant response rating, Spanishneedles (Spanishneedles; [1]) | Spanishneedles plant response rating (Spanishneedles; [2]) | Spanishneedles plant response rating (Spanishneedles; [3]) | Plant response rating, Itchgrass (itchgrass; [1]) | Plant response rating, Itchgrass (itchgrass; [2]) | Plant response rating, Itchgrass (itchgrass; [3]) | Plant response rating, C. purslane (common pursiane; Rate 32 g/ha; Preemergence; 0 to 100 scale, 0 no injury, 100 complete control) | Plant response rating, C. purslane (common pursiane; [4]) | Plant response rating, C. purslane (common pursiane; Rate 250 g/ha; Preemergence; 0 to 100 scale) | Plant response rating, Sandbur (sandbur; [1]) | Sandbur plant response rating (sandbur; [2]) | Plant response rating, C. ragweed (common ragweed; [1]) | Plant response rating, C. ragweed (common ragweed; [2]) | Plant response rating, C. ragweed (common ragweed; [3]) | Plant response rating, C. ragweed (common ragweed; Rate 250 g/ha) | Plant response rating Johnsongrass (Johnson grass; [1]) | Plant response rating Johnsongrass (Johnson grass; [2]) | Plant response rating Surinam grass (surinam grass; [1]) | Surinam grass plant response rating (surinam grass; [2]) | Surinam grass plant response rating (surinam grass; [3]) | Plant response rating, Goosegrass (goosegrass; [1])
75: Plant response rating, Goosegrass (goosegrass; [2])
20: Plant response rating, Alexandergrass (Alexandergrass; [2]) | Plant response rating, Itchgrass (itchgrass; Rate 250 g/ha) | Plant response rating Johnsongrass (Johnson grass; [3]) | Plant response rating Surinam grass (surinam grass; Rate 250 g/ha)
85: Plant response rating, Guineagrass (guineagrass; [3]) | Plant response rating, Bermudagrass (bermuda-grass; [1]) | Plant response rating, Goosegrass (goosegrass; [3])

Cc1ccccc1-n1c(=O)on(C(=O)N(c2ccccc2)C(C)C)c1=O [Compound 36]
10: Plant response rating, Spanishneedles (Spanishneedles; Rate 500 g/ha) | Plant response rating, C. purslane (common pursiane; [5]) | Plant response rating, C. ragweed (common ragweed; Rate 500 g/ha)
100: Plant response rating, Guineagrass (guineagrass; Rate 500 g/ha) | Plant response rating, Bermudagrass (bermuda-grass; Rate 500 g/ha) | Plant response rating, Com. groundsel (common groundsel; Rate 500 g/ha) | Plant response rating, Green foxtail (Green foxtail; Rate 500 g/ha) | Plant response rating, Dallisgrass (dallisgrass; Rate 500 g/ha) | Plant response rating, Sandbur (sandbur; Rate 500 g/ha) | Plant response rating, Goosegrass (goosegrass; Rate 500 g/ha)
98: Plant response rating, Alexandergrass (Alexandergrass; Rate 500 g/ha)
80: Plant response rating, Itchgrass (itchgrass; Rate 500 g/ha)
85: Plant response rating Surinam grass (surinam grass; Rate 500 g/ha)
0: Plant response rating, Tall Mallow (tall mallow; Rate 500 g/ha) | Plant response rating, P. morninglory (pitted morningglory; Rate 500 g/ha) | Plant response rating, C. purslane (common pursiane; [6]) | Plant response rating Johnsongrass (Johnson grass; Rate 500 g/ha)

CC(C)N(C(=O)n1oc(=O)n(Cc2ccccc2)c1=O)c1ccccc1 [Compound 94]
50: Plant response rating, Alexandergrass (Alexandergrass; [3])
75: Plant response rating, Com. groundsel (common groundsel; [3])
10: Plant response rating, C. purslane (common pursiane; [5]) | Plant response rating, C. ragweed (common ragweed; Rate 500 g/ha)
20: Plant response rating, Tall Mallow (tall mallow; Rate 500 g/ha) | Plant response rating H. beggarticks (hairy beggarticks; Rate 1120 g/ha) | Sandbur plant response rating (sandbur; [3]) | Plant response rating Johnsongrass (Johnson grass; Rate 500 g/ha) | Plant response rating, Velvetleaf (velvetleaf; Rate 560 g/ha)
100: Plant response rating, Guineagrass (guineagrass; Rate 500 g/ha) | Plant response rating, Bermudagrass (bermuda-grass; Rate 500 g/ha) | Plant response rating, Com. groundsel (common groundsel; Rate 500 g/ha) | Plant response rating, Green foxtail (Green foxtail; Rate 500 g/ha) | Plant response rating, Dallisgrass (dallisgrass; Rate 500 g/ha) | Plant response rating, Sandbur (sandbur; Rate 500 g/ha) | Plant response rating, Goosegrass (goosegrass; Rate 500 g/ha)
85: Plant response rating, Goosegrass (goosegrass; [3])
40: Plant response rating, Itchgrass (itchgrass; Rate 500 g/ha) | Plant response rating, Velvetleaf (velvetleaf; Rate 1120 g/ha)
98: Plant response rating, Dallisgrass (dallisgrass; [3])
5: Plant response rating H. beggarticks (hairy beggarticks; Rate 560 g/ha) | Plant response rating, Velvetleaf (velvetleaf; Rate 140 g/ha) | Plant response rating, Velvetleaf (velvetleaf; Rate 280 g/ha)
80: Plant response rating, Alexandergrass (Alexandergrass; Rate 500 g/ha) | Surinam grass plant response rating (surinam grass; [3])
90: Plant response rating, Bermudagrass (bermuda-grass; [3]) | Green foxtail plant response rating (Green foxtail; [3]) | Plant response rating, Green foxtail (Green foxtail; [3]) | Plant response rating Surinam grass (surinam grass; Rate 500 g/ha)
0: Tall Mallow plant response rating (tall mallow; [3]) | Plant response rating, Guineagrass (guineagrass; [3]) | Plant response rating, P. morninglory (pitted morningglory; [3]) | Plant response rating, P. morninglory (pitted morningglory; Rate 500 g/ha) | Spanishneedles plant response rating (Spanishneedles; [3]) | Plant response rating, Spanishneedles (Spanishneedles; Rate 500 g/ha) | Plant response rating, Itchgrass (itchgrass; [3]) | Plant response rating, C. purslane (common pursiane; [4]) | Plant response rating, C. purslane (common pursiane; [6]) | Plant response rating H. beggarticks (hairy beggarticks; Rate 140 g/ha) | Plant response rating H. beggarticks (hairy beggarticks; Rate 280 g/ha) | Plant response rating, C. ragweed (common ragweed; [3]) | Plant response rating Johnsongrass (Johnson grass; [3]) | Plant response rating, Cocklebur (cocklebur; Rate 140 g/ha) | Plant response rating, Cocklebur (cocklebur; Rate 280 g/ha)
